# From patent US20190358181A1, “METHODS FOR AUTISM SPECTRUM DISORDER PHARMACOTHERAPY” (priority 2017, published 2019)
# Like-named read-outs stand apart in the source and are kept apart here.
# Assay: Suramin plasma pharmacokinetics by LC-MS/MS, two compartment population PK model, pediatric patients
# Format: in vivo, human
# Conditions: for concentration at 1 h: read-out: 1-Hour Plasma Conc; for concentration at 45 days: read-out: 45-Day Plasma Conc; for concentration at 2 days: read-out: 2-Day Plasma Conc
# Protocol: For the test dose, 50 mg of suramin hexasodium (Bayer Pharmaceuticals, Inc.) in 5 mL of saline (experimental arm, 5 patients), or 5 mL of saline only (control arm, 5 patients) were given by slow intravenous (IV) push over 3 minutes, followed by a 10 mL flush of saline. One hour after the test dose, vital signs were repeated and a single infusion of either suramin (20 mg/kg, minus the 50 mg test dose, in 50 mL, up to a maximum of 1 gram) or saline (50 mL IV) was given over 30 minutes, followed by a 10 mL flush of saline.
# Suramin pharmacokinetics was assessed by serum isolation at the 4 time points immediately before and after the infusion. […] Unexpected and adverse events were recorded as they occurred and graded in severity according to the National Cancer Institute Common Terminology Criteria for Adverse Events v4.03 (CTCAE) scale. Additional pharmacovigilence monitoring included daily scripted phone calls in the first week, then 4 weekly calls until the exit examinations at 6 weeks.
# Heparinized plasma, 90 μl was prepared for LC-MS/MS analysis. Ten (10) μl of 50 μM stock of trypan blue was added to achieve an internal standard concentration of 5μM. This was incubated at room temperature for 10 min to permit metabolite interaction with binding proteins, then extracted with 4 volumes (400 μl) of pre-chilled methanol-acetonitrile (50:50) to produce a final concentration of 40:40:20 (methanol:acetonitrile:H2O), and precipitated on ice for 10 minutes. The samples were deproteinated and macromolecules removed by precipitation on crushed ice for 10 min.
# The mixture was centrifuged at 16,000g for 10 min at 4° C. and the supernatant was transferred to a new tube and kept at −80° C. for further LC-MS/MS analysis.
# Suramin was detected in the prepared samples on an AB SCIEX QTRAP 5500 triple quadrupole mass spectrometer equipped with a Turbo V electrospray ionization (ESI) source, Shimadzu LC-20A UHPLC system, and a PAL CTC autosampler. […] The mobile phase A was water with 20 mM ammonium acetate (NH4OAC) (pH 7) and mobile phase B was methanol with 20 mM NH4OAC (pH 7). […] The flow rate was 400 μl/min. All the samples were kept at 4° C. during analysis. Suramin and trypan blue were detected using MRM scanning mode with the dwell time of 180 ms. […] Absolute concentrations of suramin were determined using a standard curve prepared in plasma to account for matrix effects, and the peak area ratio of suramin to the internal standard trypan blue. […] The ESI source parameters were set as follows: source temperature 500° C.; curtain gas 30; ion source gas 1, 35; ion source gas 2 35; spray voltage −4500 V. Analyst v1.6 was used for data acquisition and analysis.
# The small number of PK samples per subject prevented a standard, non-compartmental analysis in individual subjects. The suramin drug concentrations were analyzed using a population PK approach with post-hoc empiric Bayesian estimate of PK parameters in individual subjects. The PK data were fit to a two compartment model using the computer program NONMEM (ICON, Dublin, Ireland). PK parameters were scaled allometrically with volume terms scaled to linear body weight (kg1.0) and clearance terms scaled to weight (kg0.75). Scaled adult suramin parameters of compartmental volumes of distribution and clearance were used as initial parameter estimates and between subject variability only estimated for clearance (CL) and the peripheral volume of distribution (Vd).
# [1] = human, plasma, iv, 20 mg/kg, Mean of 5 subjects, 20 mg/kg (558 mg/m^2) IV
# [2] = human, plasma, iv, 460 mg, ID 007, 460 mg (529 mg/m^2) IV
# [3] = human, plasma, iv, 460 mg, ID 012, 460 mg (529 mg/m^2) IV
# [4] = human, plasma, iv, 500 mg, ID 005, 500 mg (526 mg/m^2) IV
# [5] = human, plasma, iv, 680 mg, ID 001, 680 mg (591 mg/m^2) IV
# [6] = human, plasma, iv, 1000 mg, ID 014, 1000 mg (613 mg/m^2) IV
# [7] = human, plasma, Mean of 5 subjects, 20 mg/kg (558 mg/m^2) IV
smiles,measurement,setting,value
"Cc1ccc(C(=O)Nc2ccc(S(=O)(=O)O)c3cc(S(=O)(=O)O)cc(S(=O)(=O)O)c23)cc1NC(=O)c1cccc(NC(=O)Nc2cccc(C(=O)Nc3cc(C(=O)Nc4ccc(S(=O)(=O)O)c5cc(S(=O)(=O)O)cc(S(=O)(=O)O)c45)ccc3C)c2)c1 [Suramin, suramin]",clearance,20 mg/kg IV,0.056±0.011 L/hr/m2
same,steady-state volume of distribution,20 mg/kg IV,22.7±2.6 L/m2
same,suramin levels,"before Day 2, all subjects",below 100 μM
same,plasma concentrations maintained,between 2 days and 5-6 weeks following the dose,1.5 to 15 µM
same,half-life,"human, plasma, iv, 20 mg/kg, 20 mg/kg IV, read-out: alpha (distribution) phase half-life (converted)",0.308 ± 0.0229 days
same,concentration at 1 h,[1],104 µM
same,concentration at 45 days,[1],1.54 µM
same,half-life,"human, plasma, iv, 20 mg/kg, Mean of 5 subjects, 20 mg/kg (558 mg/m^2) IV, read-out: Plasma Half-Life (terminal elimination phase half-life) (converted)",14.7 days
same,concentration at 1 h,[2],87.9 µM
same,concentration at 2 days,[2],11.9 µM
same,concentration at 45 days,[2],1.67 µM
same,concentration at 1 h,[3],119 µM
same,concentration at 2 days,[3],13.8 µM
same,concentration at 45 days,[3],2.28 µM
same,half-life,"human, plasma, iv, 460 mg, ID 012, 460 mg (529 mg/m^2) IV, read-out: Plasma Half-Life (converted)",16.5 days
same,concentration at 1 h,[4],102 µM
same,concentration at 2 days,[4],10.6 µM
same,concentration at 45 days,[4],1.76 µM
same,half-life,"human, plasma, iv, 500 mg, ID 005, 500 mg (526 mg/m^2) IV, read-out: Plasma Half-Life (converted)",15 days
same,concentration at 1 h,[5],101 µM
same,concentration at 2 days,[5],13.2 µM
same,concentration at 45 days,[5],0.96 µM
same,half-life,"human, plasma, iv, 680 mg, ID 001, 680 mg (591 mg/m^2) IV, read-out: Plasma Half-Life (converted)",12.6 days
same,concentration at 1 h,[6],111 µM
same,concentration at 2 days,[6],10.6 µM
same,concentration at 45 days,[6],1.04 µM
same,half-life,"human, plasma, iv, 1000 mg, ID 014, 1000 mg (613 mg/m^2) IV, read-out: Plasma Half-Life (converted)",14.9 days
same,clearance,"human, plasma, 20 mg/kg IV, read-out: clearance (converted)",1.95 mL/h/kg
same,Vd,"human, plasma, 20 mg/kg IV, read-out: steady-state volume of distribution",0.83 ± 0.014 L/kg
same,concentration at 1 h,[7],104 ± 11.6 µM
same,concentration at 2 days,[7],12 ± 1.5 µM
